Holding throughout (assay): relative viability (nuclei count vs DMSO), 5 days (fraction); higher = more cells survive
Compound in the experiment “Dasatinib + Linsitinib”: Cc1nc(Nc2ncc(C(=O)Nc3c(C)cccc3Cl)s2)cc(N2CCN(CCO)CC2)n1 [Dasatinib] + C[C@]1(O)C[C@@H](c2nc(-c3ccc4ccc(-c5ccccc5)nc4c3)c3c(N)nccn32)C1 [Linsitinib] (partner 1 µM)
In outline:
(§1)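 Nuclei were stained with Hoechst during a one-step fixation (final 0.05% Triton X-100, 1% formaldehyde, 1 ug/ml Hoechst) carried out 5 days after dosing, then counted on 4× images. The cells, lung cancer lines in 1536-well plates, had been dosed by pin tool the day after seeding with one drug alone or a fixed anchor-drug dose plus five library-drug doses (not always all listed) in √10 steps. Relative viability is the nuclei count in treated wells divided by that in vehicle wells, and each value is the median of duplicate plates.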

Compound in the experiment “XMD13-2 + Vorinostat”: C1CC1C(=O)NC2=NNC3=C2C=CC(=C3)C4=CC(=CC=C4)C(=O)NC5CC5 [XMD13-2] + O=C(CCCCCCC(=O)Nc1ccccc1)NO [Vorinostat] (partner 1 µM)
A digest of the protocol:
as §1

Compound in the experiment “XMD13-2 + Lapatinib”: C1CC1C(=O)NC2=NNC3=C2C=CC(=C3)C4=CC(=CC=C4)C(=O)NC5CC5 [XMD13-2] + CS(=O)(=O)CCNCc1ccc(-c2ccc3ncnc(Nc4ccc(OCc5cccc(F)c5)c(Cl)c4)c3c2)o1 [Lapatinib] (partner 2 µM)
A digest of the protocol:
as §1

Compound in the experiment “ALW-II-49-7 + Vorinostat”: Cc1ccc(C(=O)Nc2cccc(C(F)(F)F)c2)cc1Nc1cncc(C(N)=O)c1 [ALW-II-49-7] + O=C(CCCCCCC(=O)Nc1ccccc1)NO [Vorinostat] (partner 1 µM)
A digest of the protocol: as §1

In the case of NCI-H1734, the relative viability in the experiment with Dasatinib + Linsitinib (first compound 0.005 µM) turned out to be 0.678; in the experiment with Dasatinib + Linsitinib (first compound 0.01581 µM), 0.693; with Dasatinib + Linsitinib (first compound 0.05 µM) it was 0.64; in the experiment with Dasatinib + Linsitinib (first compound 0.1581 µM), 0.394; with Dasatinib + Linsitinib (first compound 0.5 µM) it was 0.331; with XMD13-2 + Vorinostat (first compound 0.05 µM), 1.02. The relative viability with XMD13-2 + Vorinostat (first compound 0.1581 µM) stood at 0.777; in the experiment with XMD13-2 + Vorinostat (first compound 0.5 µM), 0.753; with XMD13-2 + Vorinostat (first compound 1.581 µM), 0.685; with XMD13-2 + Vorinostat (first compound 5 µM), 0.547; with XMD13-2 + Lapatinib (first compound 0.05 µM), 1.28; with XMD13-2 + Lapatinib (first compound 0.1581 µM), 0.995. For the same cell line, the relative viability with XMD13-2 + Lapatinib (first compound 0.5 µM) amounted to 0.735; with XMD13-2 + Lapatinib (first compound 1.581 µM), 0.935; in the experiment with XMD13-2 + Lapatinib (first compound 5 µM), 0.85; with ALW-II-49-7 + Vorinostat (first compound 0.08 µM), 0.763; in the experiment with ALW-II-49-7 + Vorinostat (first compound 0.253 µM) it was 0.8; with ALW-II-49-7 + Vorinostat (first compound 0.8 µM) it was 0.78. The results for the relative viability with ALW-II-49-7 + Vorinostat (first compound 2.53 µM) and with ALW-II-49-7 + Vorinostat (first compound 8 µM) were 0.795 and 0.727, respectively.
As to SK-MES-1, the relative viability with Dasatinib + Linsitinib (first compound 0.005 µM) worked out at 1.11; with Dasatinib + Linsitinib (first compound 0.01581 µM) it was 1.08; with Dasatinib + Linsitinib (first compound 0.05 µM), 0.937; with Dasatinib + Linsitinib (first compound 0.1581 µM), 0.412; with Dasatinib + Linsitinib (first compound 0.5 µM), 0.219; with XMD13-2 + Vorinostat (first compound 0.05 µM), 1.16. For the same cell line, the relative viability with XMD13-2 + Vorinostat (first compound 0.1581 µM) worked out at 1.09; with XMD13-2 + Vorinostat (first compound 0.5 µM), 1.07; with XMD13-2 + Vorinostat (first compound 1.581 µM) it was 1.03; in the experiment with XMD13-2 + Vorinostat (first compound 5 µM) it was 1.31; in the experiment with XMD13-2 + Lapatinib (first compound 0.05 µM), 0.578; in the experiment with XMD13-2 + Lapatinib (first compound 0.1581 µM), 0.461. Further, the relative viability in the experiment with XMD13-2 + Lapatinib (first compound 0.5 µM) turned out to be 0.519; with XMD13-2 + Lapatinib (first compound 1.581 µM) it was 0.477; in the experiment with XMD13-2 + Lapatinib (first compound 5 µM), 0.514; with ALW-II-49-7 + Vorinostat (first compound 0.08 µM), 1.14; with ALW-II-49-7 + Vorinostat (first compound 0.253 µM), 1.16; with ALW-II-49-7 + Vorinostat (first compound 0.8 µM), 1.05. Besides, the relative viability with ALW-II-49-7 + Vorinostat (first compound 2.53 µM) was 1.04; with ALW-II-49-7 + Vorinostat (first compound 8 µM), 0.938.
As to Calu-6, the relative viability in the experiment with Dasatinib + Linsitinib (first compound 0.005 µM) was 0.764; with Dasatinib + Linsitinib (first compound 0.01581 µM), 0.811; with Dasatinib + Linsitinib (first compound 0.05 µM), 0.694; with Dasatinib + Linsitinib (first compound 0.1581 µM), 0.561; in the experiment with Dasatinib + Linsitinib (first compound 0.5 µM), 0.424; in the experiment with XMD13-2 + Lapatinib (first compound 0.05 µM) it was 1.18. In addition, the relative viability is 0.93 with XMD13-2 + Lapatinib (first compound 0.1581 µM), 1.11 with XMD13-2 + Lapatinib (first compound 0.5 µM), 0.983 with XMD13-2 + Lapatinib (first compound 1.581 µM) and 0.736 in the experiment with XMD13-2 + Lapatinib (first compound 5 µM).
On to NCI-H1650, for which the relative viability with XMD13-2 + Vorinostat (first compound 0.05 µM) is 0.661; with XMD13-2 + Vorinostat (first compound 0.1581 µM), 0.584; with XMD13-2 + Vorinostat (first compound 0.5 µM), 0.576; with XMD13-2 + Vorinostat (first compound 1.581 µM), 0.594; with XMD13-2 + Vorinostat (first compound 5 µM) it was 0.555; in the experiment with XMD13-2 + Lapatinib (first compound 0.05 µM) it was 0.865. For the same cell line, the relative viability is 0.674 with XMD13-2 + Lapatinib (first compound 0.1581 µM); 0.809 with XMD13-2 + Lapatinib (first compound 0.5 µM); 0.677 with XMD13-2 + Lapatinib (first compound 1.581 µM); 0.227 with XMD13-2 + Lapatinib (first compound 5 µM); 0.518 in the experiment with ALW-II-49-7 + Vorinostat (first compound 0.08 µM); 0.656 in the experiment with ALW-II-49-7 + Vorinostat (first compound 0.253 µM). Moreover, the relative viability was found to be 0.563 with ALW-II-49-7 + Vorinostat (first compound 0.8 µM), 0.524 in the experiment with ALW-II-49-7 + Vorinostat (first compound 2.53 µM) and 0.576 with ALW-II-49-7 + Vorinostat (first compound 8 µM).
For the cell line NCI-H2342, the relative viability was 0.741 with XMD13-2 + Vorinostat (first compound 0.05 µM); 0.736 with XMD13-2 + Vorinostat (first compound 0.1581 µM); 0.831 with XMD13-2 + Vorinostat (first compound 0.5 µM); 0.687 with XMD13-2 + Vorinostat (first compound 1.581 µM); 0.773 with XMD13-2 + Vorinostat (first compound 5 µM); 0.702 with ALW-II-49-7 + Vorinostat (first compound 0.08 µM). Moreover, the relative viability with ALW-II-49-7 + Vorinostat (first compound 0.253 µM) stood at 0.922; in the experiment with ALW-II-49-7 + Vorinostat (first compound 0.8 µM), 0.744; with ALW-II-49-7 + Vorinostat (first compound 2.53 µM), 0.837; in the experiment with ALW-II-49-7 + Vorinostat (first compound 8 µM) it was 0.859.
Consider NCI-H1299, for which the relative viability in the experiment with Dasatinib + Linsitinib (first compound 0.005 µM) was 0.978; in the experiment with Dasatinib + Linsitinib (first compound 0.01581 µM), 0.996; with Dasatinib + Linsitinib (first compound 0.05 µM) it was 0.93; in the experiment with Dasatinib + Linsitinib (first compound 0.1581 µM), 0.286; with Dasatinib + Linsitinib (first compound 0.5 µM), 0.146; with XMD13-2 + Lapatinib (first compound 0.05 µM), 0.908. The relative viability in the experiment with XMD13-2 + Lapatinib (first compound 0.1581 µM) was 1.03; with XMD13-2 + Lapatinib (first compound 0.5 µM), 0.997; with XMD13-2 + Lapatinib (first compound 1.581 µM) it was 0.958; with XMD13-2 + Lapatinib (first compound 5 µM), 0.939.
With NCI-H522, the relative viability is 0.856 in the experiment with XMD13-2 + Vorinostat (first compound 0.05 µM); 0.873 in the experiment with XMD13-2 + Vorinostat (first compound 0.1581 µM); 0.805 with XMD13-2 + Vorinostat (first compound 0.5 µM); 0.982 with XMD13-2 + Vorinostat (first compound 1.581 µM); 0.907 in the experiment with XMD13-2 + Vorinostat (first compound 5 µM); 0.824 with ALW-II-49-7 + Vorinostat (first compound 0.08 µM). The relative viability stood at 1.04 with ALW-II-49-7 + Vorinostat (first compound 0.253 µM), 0.824 with ALW-II-49-7 + Vorinostat (first compound 0.8 µM), 0.834 in the experiment with ALW-II-49-7 + Vorinostat (first compound 2.53 µM) and 0.94 with ALW-II-49-7 + Vorinostat (first compound 8 µM).
Consider NCI-H2170, for which the relative viability with XMD13-2 + Vorinostat (first compound 0.05 µM) stood at 0.904; with XMD13-2 + Vorinostat (first compound 0.1581 µM) it was 0.753; with XMD13-2 + Vorinostat (first compound 0.5 µM) it was 0.855; in the experiment with XMD13-2 + Vorinostat (first compound 1.581 µM), 0.794; with XMD13-2 + Vorinostat (first compound 5 µM), 0.809; with XMD13-2 + Lapatinib (first compound 0.05 µM), 0.307. Besides, the relative viability with XMD13-2 + Lapatinib (first compound 0.1581 µM) was 0.272; with XMD13-2 + Lapatinib (first compound 0.5 µM), 0.278; with XMD13-2 + Lapatinib (first compound 1.581 µM) it was 0.284; with XMD13-2 + Lapatinib (first compound 5 µM) it was 0.266; in the experiment with ALW-II-49-7 + Vorinostat (first compound 0.08 µM), 0.917; with ALW-II-49-7 + Vorinostat (first compound 0.253 µM), 0.921. The figures for the relative viability in the experiment with ALW-II-49-7 + Vorinostat (first compound 0.8 µM), in the experiment with ALW-II-49-7 + Vorinostat (first compound 2.53 µM) and in the experiment with ALW-II-49-7 + Vorinostat (first compound 8 µM) were 0.841, 0.796 and 0.867, respectively.
As for NCI-H1648, the relative viability with XMD13-2 + Vorinostat (first compound 0.05 µM) stood at 0.733; in the experiment with XMD13-2 + Vorinostat (first compound 0.5 µM), 0.42; with XMD13-2 + Vorinostat (first compound 1.581 µM), 0.391; with XMD13-2 + Vorinostat (first compound 5 µM), 0.459; in the experiment with ALW-II-49-7 + Vorinostat (first compound 0.08 µM) it was 0.346; with ALW-II-49-7 + Vorinostat (first compound 0.253 µM), 0.298. In addition, the relative viability worked out at 0.287 with ALW-II-49-7 + Vorinostat (first compound 0.8 µM), 0.327 with ALW-II-49-7 + Vorinostat (first compound 2.53 µM) and 0.425 in the experiment with ALW-II-49-7 + Vorinostat (first compound 8 µM).
On to NCI-H1703, for which the relative viability is 0.139 with Dasatinib + Linsitinib (first compound 0.005 µM); 0.29 with Dasatinib + Linsitinib (first compound 0.01581 µM); 0.247 with Dasatinib + Linsitinib (first compound 0.05 µM); 0.0903 in the experiment with Dasatinib + Linsitinib (first compound 0.1581 µM); 0.144 with Dasatinib + Linsitinib (first compound 0.5 µM); 1.38 with XMD13-2 + Lapatinib (first compound 0.05 µM). Besides, the relative viability with XMD13-2 + Lapatinib (first compound 0.1581 µM) came to 1.4; with XMD13-2 + Lapatinib (first compound 0.5 µM), 1.17; with XMD13-2 + Lapatinib (first compound 1.581 µM) it was 0.842; in the experiment with XMD13-2 + Lapatinib (first compound 5 µM), 0.72.
For ChaGo-K-1, the relative viability with XMD13-2 + Vorinostat (first compound 0.05 µM) came out at 0.789; with XMD13-2 + Vorinostat (first compound 0.1581 µM), 0.635; with XMD13-2 + Vorinostat (first compound 0.5 µM), 0.837; with XMD13-2 + Vorinostat (first compound 1.581 µM), 0.7; in the experiment with XMD13-2 + Vorinostat (first compound 5 µM), 0.716; in the experiment with ALW-II-49-7 + Vorinostat (first compound 0.08 µM), 0.744. Also, the relative viability in the experiment with ALW-II-49-7 + Vorinostat (first compound 0.253 µM) worked out at 0.75; in the experiment with ALW-II-49-7 + Vorinostat (first compound 0.8 µM) it was 0.713; with ALW-II-49-7 + Vorinostat (first compound 2.53 µM) it was 0.689; with ALW-II-49-7 + Vorinostat (first compound 8 µM), 0.83.

The record behind these values is the supplement of paper PMC10307832.
